Measurements reported in patent US20240285599A1, “Mature-Hepatocyte Transdifferentiation Suppressing Composition” (OSAKA UNIVERSITY, priority 2021, published 2024).

Assays:
[1] = tested on: TRAF3/PTEN knockdown HepG2 cell; test: KRT19 mRNA quantification and immunoblotting (P52) in TRAF3/PTEN knockdown HepG2; assay type: cell-based, human; details: HepG2 (PTKD #1); for increase in expression of P52 by knockdown of TRAF3 and PTEN: western blot
Procedure: (§1) The transfection of siRNA or a plasmid into cells was performed with Lipofectamine RNAiMAX Transfection Reagent (Thermo Fisher Scientific, Inc., USA) or Lipofectamine 2000 (Thermo Fisher Scientific, Inc., USA), respectively, and with Opti-MEM (Thermo Fisher Scientific, Inc., USA). The transfection of the siRNA was performed as follows: the cells were dispersed at a concentration of 100,000 cells/mL; 10 μM of the siRNA was mixed into 100 μL of the Opti-MEM at a ratio of 1 μL, and the mixture was left at rest for 5 minutes; and then 3 μL of the RNAiMAX was mixed into the mixture, and the whole was left at rest for 15 minutes, followed by administration to the supernatant of the previously dispersed cells. Further, a medium change was performed 24 hours thereafter.
(§2) A procedure for western blotting is as described in the previous report (Tanaka S, et al. Hepatology. 2016; 64(6): 1994-2014). The protein extracts of cells and animal tissues were prepared by using a lysis buffer having added thereto a protease inhibitor (Nacalai Tesque, Inc., Japan) and a phosphatase inhibitor (Nacalai Tesque, Inc., Japan). In western blotting for the detection of NIK, MG-132 (ChemScene, USA) was administered at a concentration of 5 μM 4 hours before protein recovery. The following antibodies were used in immunodetection: TRAF3 (1:1,000 Cell Signaling, #4729), PTEN (1:1,000 Cell Signaling, #9188), KRT19 (1:50,000 Abcam, #ab52625), p100/p52 (1:1,000 Cell Signaling, #4882), NIK (1:1,000 Cell Signaling, #4994), and β-actin (1:10,000 Sigma-Aldrich Co., LLC, #A5316). Anti-mouse IgG, HRP-linked whole Ab sheep (Cytiva, Japan), or anti-rabbit IgG, HRP-linked whole Ab donkey (Cytiva, Japan) was used as a secondary antibody, and luminescence analysis was performed with SuperSignal (trademark) West Pico PLUS Chemiluminescent Substrate (Thermo Fisher Scientific, Inc., USA).
(§3) Total RNA was extracted from a cell line and a human liver tissue with RNeasy Mini Kit (QIAGEN N.V., Nederland). Then, 1 μg of the total RNA was reverse-transcribed with ReverTra Ace qPCR RT Kit (Toyobo Co., Ltd., Tokyo) to synthesize complementary DNA. The mRNA expression of each of the following genes was analyzed through use of a TaqMan gene expression assay: human GAPDH (Hs02758991), human TRAF3 (Hs00936781), human PTEN (Hs02621230), human KRT19 (Hs00761767), human NIK (Hs01089753), mouse Gapdh (Mm09999915), mouse Traf3 (Mm00495752), mouse Pten (Mm00477208), mouse Krt19 (Mm00492980), mouse NIK (Mm00444166), and mouse Alb (Mm00802090). The gene expression amount of a human and the gene expression amount of a mouse were normalized to the expression amount of GAPDH.
The effect of TRAF3/PTEN inhibition on the expression of a bile duct marker in each of a primary human hepatocyte (hereinafter also referred to as “PHH”) and a human hepatoma cell line HepG2 cell (hereinafter also referred to as “HepG2”) was evaluated. The PHH and the HepG2 are each a mature hepatocyte having an albumin-producing ability. The TRAF3 and PTEN of each of the HepG2 and the PHH were knocked down with siRNA. The term “[…]” means a HepG2 or a PHH having introduced thereinto siRNA Traf3 #2 and Pten #1 (hereinafter also referred to as “PTKD #1HepG2” and “PTKD #1PHH” respectively). The term “PTKD #2” means a HepG2 or a PHH having introduced thereinto the siRNA Traf3 #2 and Pten #3 (hereinafter also referred to as “PTKD #2HepG2” and “PTKD #2PHH” respectively). All the siRNAs were obtained from Thermo Fisher Scientific, Inc. The sequence of each of the siRNAs is described below.
Specifically, 24 hours after the start of the culture of each of the PTKD #1HepG2 and the PTKD #1PHH obtained in Test Example 5, NIKSMI described above was added at a concentration of 9 μM. 48 Hours after that, the cells were recovered, and the mRNA of KRT19 was quantified, followed by immunoblotting. […]

[2] = tested on: TRAF3/PTEN knockdown primary human hepatocyte (PHH); test: KRT19 mRNA quantification and immunoblotting (P52) in TRAF3/PTEN knockdown primary human hepatocyte; assay type: cell-based; details: PHH (PTKD #1); for increase in expression of P52 by knockdown of TRAF3 and PTEN: western blot
Procedure: Human hepatocyte chimeric mice were generated in accordance with the protocol of the previous report (Hasegawa M, et al. Biochem Biophys Res Commun. 2011; 405(3): 405-410). Ganciclovir was administered to each of highly immunocompromised NOG mice (TK-NOG) each having a liver in which a herpes simplex virus type 1 thymidine kinase transgene had been expressed to induce liver injury, followed by the transplantation of human hepatocytes. As described in the previous report (Murai K, et al. Sci Rep. 2020; 10(1): 941), primary human hepatocytes were collected from the human hepatocyte chimeric mice each having a chimeric liver rate of 90% or more by using a two-step collagenase-pronase reflux method. It was recognized by FACS that the human hepatocytes accounted for 90% or more of the collected cells. Those cells were spread on a collagen-coated dish and cultured.
as §1, §2, §3
The effect of TRAF3/PTEN inhibition on the expression of a bile duct marker in each of a primary human hepatocyte (hereinafter also referred to as “PHH”) and a human hepatoma cell line HepG2 cell (hereinafter also referred to as “HepG2”) was evaluated. The PHH and the HepG2 are each a mature hepatocyte having an albumin-producing ability. The TRAF3 and PTEN of each of the HepG2 and the PHH were knocked down with siRNA. […]

[3] = NIK siRNA transfected, 72 h, FIG. 13
[4] = NIK siRNA transfected, cells recovered after 72 h culture, FIG. 13
[5] = NIKSMI 9 μM added 24 h after start of culture, cells recovered 48 h later, FIG. 11

NIK KD #1: siRNA of NIK, SEQ ID NO: 2 (sense) and 3 (antisense), from Thermo Fisher Scientific (sense CAAACGCAAAGAGCAAGAAUU; antisense UUCUUGCUCUUUGCGUUUGCA; listed as RNA, chemistry not given here)
significantly suppressed: increase in expression of P52 by knockdown of TRAF3 and PTEN [1, 3] | increase in expression of KRT19 by knockdown of TRAF3 and PTEN [1, 4] | increase in expression of P52 by knockdown of TRAF3 and PTEN [2, 3] | increase in expression of KRT19 by knockdown of TRAF3 and PTEN [2, 4]

NIK KD #2: siRNA of NIK, SEQ ID NO: 4 (sense) and 5 (antisense), from Thermo Fisher Scientific (sense GCAAAGAGCAAGAACCAAAUU; antisense UUUGGUUCUUGCUCUUUGCGU; listed as RNA, chemistry not given here)
significantly suppressed: increase in expression of P52 by knockdown of TRAF3 and PTEN [1, 3] | increase in expression of KRT19 by knockdown of TRAF3 and PTEN [1, 4] | increase in expression of P52 by knockdown of TRAF3 and PTEN [2, 3] | increase in expression of KRT19 by knockdown of TRAF3 and PTEN [2, 4]

COc1cc(C(N)=O)nc(-c2cccc(C#C[C@]3(O)CCN(C)C3=O)c2)c1 [NIKSMI, (R)-6-(3-((3-hydroxy-1-methyl-2-oxopyrrolidin-3-yl)ethynyl)phenyl)-4-methoxypicolinamide]
significantly suppressed: increase in expression of KRT19 by knockdown of TRAF3 and PTEN [1, 5] | increase in expression of P52 by knockdown of TRAF3 and PTEN ([1]; NIKSMI 9 μM, 48 h, FIG. 11) | increase in expression of KRT19 by knockdown of TRAF3 and PTEN [2, 5] | increase in expression of P52 by knockdown of TRAF3 and PTEN ([2]; NIKSMI 9 μM, 48 h, FIG. 11)
